PMC10229426, “An optimized bioluminescent substrate for non-invasive imaging in the brain” (Nature Chemical Biology, 2023)
Where “and” joins values, the source holds several entries; their conditions need not be identical. Identical values can stand only once. Entries after “also recorded” stand apart in the source; their conditions may differ.

Experiments:
[1] = probably due to acidity of the solution; cited from earlier work
[2] = system: AkaLuc; experiment: Bioluminescence imaging of transgenic mice expressing AkaLuc in the brain; format: in vivo, mouse; settings: 3.0- or 1.3-µmol doses
Excerpt: (§1) Transgenic reporter mice with LSL-CAG-luciferase (Antares, FLuc or AkaLuc) inserted at the H11 locus (H11P) were generated by φC31-mediated recombination in blastocysts[48] by the Stanford Transgenic, Knockout and Tumor Model Center. For substrate comparisons, 2- to 4-month-old transgenic mice doubly hemizygous for a Camk2a-cre (Jackson Laboratory, 005359), Vgat-IRES-cre (Jackson Laboratory), Vglut2-IRES-cre (Jackson Laboratory, 016963) or Alb-cre (Jackson Laboratory, 003574) driver and a CAG-LSL-Antares, CAG-LSL-AkaLuc or CAG-LSL-FLuc reporter were anesthetized by inhalation of isoflurane for 5 min. An electric shaver was used to remove scalp hair in Camk2a-cre, Vglut2-IRES-cre or Vgat-IRES-cre mice or abdominal hair in Alb-cre mice. Nair depilatory cream (Church and Dwight) was then applied to the shaved area for 1 min, and remaining hair was removed with a piece of sterile gauze. […]
(§2) For mice expressing Antares, indicated amounts of Fz were dissolved in 480 µl of a PEG-300-based formulation consisting of 10% glycerol, 10% ethanol, 10% hydroxypropylcyclodextrin and 35% PEG-300 in water, or indicated amounts of lyophilized Fz analogs with P-407 vehicle were reconstituted in 150–500 µl of DPBS buffer. […] Integrated luminescence was quantified using the Fiji version of the ImageJ program (NIH)[49], with further statistical analysis performed in GraphPad Prism (version 9.0.0).

[3] = biological target: T1, Antares luciferase (Oplophorus gracilirostris, UniProt Q9GV45, A31E/A60N/A81I/F95D/I117V/K70R/L54V/L99Q/M102K/N193R/P142E/Q151K/Q38R/Q45L/V71I/Y165I); experiment: Non-invasive detection of Antares in the liver (Alb-cre driver); format: in vivo, mouse; settings: 1.3 µmol i.p.
T1 construct: expressed in transfected cells; host or cells: transgenic mice with CAG-LSL-Antares at the H11 locus, crossed to Cre driver lines (neurons or liver)
T1 sequence (Q9GV45 other isoform, or with tags, fused parts or gaps with the stated changes): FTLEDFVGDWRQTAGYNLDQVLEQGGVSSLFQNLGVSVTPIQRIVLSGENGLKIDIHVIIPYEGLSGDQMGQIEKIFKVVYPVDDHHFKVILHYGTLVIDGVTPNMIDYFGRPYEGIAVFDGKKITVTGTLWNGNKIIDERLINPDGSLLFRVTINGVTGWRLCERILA
Excerpt: as §1, §2

[4] = biological target: T1, Antares luciferase; experiment: Bioluminescence imaging of transgenic mice for substrate comparison (brain, Cre-driven Antares); format: in vivo, mouse
Excerpt: Transgenic reporter mice with LSL-CAG-luciferase (Antares, FLuc or AkaLuc) inserted at the H11 locus (H11P) were generated by φC31-mediated recombination in blastocysts[48] by the Stanford Transgenic, Knockout and Tumor Model Center. For substrate comparisons, 2- to 4-month-old transgenic mice doubly hemizygous for a Camk2a-cre (Jackson Laboratory, 005359), Vgat-IRES-cre (Jackson Laboratory), Vglut2-IRES-cre (Jackson Laboratory, 016963) or Alb-cre (Jackson Laboratory, 003574) driver and a CAG-LSL-Antares, CAG-LSL-AkaLuc or CAG-LSL-FLuc reporter were anesthetized by inhalation of isoflurane for 5 min. An electric shaver was used to remove scalp hair in Camk2a-cre, Vglut2-IRES-cre or Vgat-IRES-cre mice or abdominal hair in Alb-cre mice. Nair depilatory cream (Church and Dwight) was then applied to the shaved area for 1 min, and remaining hair was removed with a piece of sterile gauze. The area was then rinsed with DPBS and cleaned with 70% ethanol with a piece of sterile gauze.
For mice expressing Antares, indicated amounts of Fz were dissolved in 480 µl of a PEG-300-based formulation consisting of 10% glycerol, 10% ethanol, 10% hydroxypropylcyclodextrin and 35% PEG-300 in water, or indicated amounts of lyophilized Fz analogs with P-407 vehicle were reconstituted in 150–500 µl of DPBS buffer. For mice expressing FLuc, indicated amounts of D-luciferin were dissolved in PBS. For mice expressing AkaLuc, 3 μmol (1.0 mg) of AkaLumine-HCl (Sigma-Aldrich) was dissolved in 150 μl of 0.9% NaCl. Substrates were then injected into the peritoneal cavity in the left lower quadrant, with the maximum injectable volume at 480 µl. Immediately after substrate injection, bioluminescent images were acquired in an Ami HT bioluminescence imaging system running Aura software version 3.1 or 4.0 (Spectral Instruments Imaging) for 15–30 min at intervals of 1 min. For comparing substrates at 1.3 µmol, the following imager settings were used: emission filter open, field of view of 25 cm, f-stop of 1.2, binning of 2 × 2 and exposure time of 2 s. For comparison with >1.3-µmol substrates, the following settings were used: emission filter open, field of view of 25 cm, f-stop of 1.2, binning of 1 × 1 and exposure time of 1 s. Pseudocolor images and intensity scale bars were generated with Aura software. Integrated luminescence was quantified using the Fiji version of the ImageJ program (NIH)[49], with further statistical analysis performed in GraphPad Prism (version 9.0.0).

[5] = Solubility in aqueous formulation with poloxamer-407 (P-407); format: physicochemical
Description: Stock samples of solid formulated Fz analogs were prepared using the following protocol. First, P-407 (Pluronic F127) was placed into a screw-cap glass vial. The polymer was then heated to 75 °C in a water bath until melted. Fz analogs dissolved in ethanol were added to the hot polymer, mixing well with a thin spatula. Additional rinses of Fz analogs in ethanol were added to the hot polymer for quantitative transfer. The solvent was then removed under vacuum. This concentrated sample was diluted with water to make a dispensing mixture of 4–9 mM Fz analogs in water. Next, this aqueous stock was aliquoted into glass vials, frozen and lyophilized overnight to give a yellow cake. For i.p. injection into mice, DPBS (Corning, 21-031-CV) was added to the vial and rocked to create a clear solution.

[6] = Toxicity in mice: necropsy and histopathology; format: in vivo, C57BL/6 mice; parameters: key to BMH, brain multifocal hemorrhage score / HN, hepatocellular necrosis score / RTD, renal tubular dilation score / RTDR, renal tubular degeneration and regeneration score: 0: absent; 1: minimal; 2: mild; 3: moderate; 4: severe; key to HMNH, heart myocardial necrosis and hemorrhage score: 0: no lesions; 1: <5% of myocardium affected; 2: 5-10% affected; 3: 10-25% affected; 4: >25% affected; key to LC, Liver capsule score: 0: normal; 1: segmental subcapsular necrosis +/- neutrophilic infiltrate; Total organ score: scale not given here
Description: (§3) Male C57BL/6 mice of 2 months of age were killed by CO2 asphyxiation and cardiac exsanguination. All mice were weighed, and a complete gross examination of the external and internal organs was performed. […] Formalin-fixed tissues were processed routinely, embedded in paraffin, sectioned at 5 μm and stained with hematoxylin and eosin. All slides were blindly evaluated for histologic treatment-related effects (Supplementary Table 1) by a board-certified veterinary pathologist.

[7] = Toxicity in mice: necropsy and histopathology; format: in vivo, C57BL/6 mice; parameters: key: 0: absent; 1: minimal; 2: mild; 3: moderate; 4: severe; settings: 1 day, 4.2 µmol, 20 mg P-407; individual mice
Description: as §3

[8] = i.p., CAG-LSL-Antares x Vgat-IRES-cre mice
[9] = 1 day, 4.2 µmol, 20 mg P-407, individual mice

## CN(C)c1ccc(/C=C/C=C/C2=N[C@@H](C(=O)O)CS2)cc1 [AkaLumine]
[1]
  toxicity of administered solution: noticeable toxicity of the Akalumine solution to the skin and heart
[2]
  duration of brain signal relative to Antares–CFz: more sustained signal

## Nc1cccc(-c2cn3c(=O)c(Cc4ccco4)nc-3c(Cc3ccccc3F)[nH]2)c1F [FFz, fluorofurimazine, reference compound]
[3]
  liver signal, 6 versus FFz: brighter in the liver
[4]; Antares driven by Camk2a-cre
  brain signal distribution: signal predominantly from the hindbrain
[4]; [8]
  brain signal distribution: low brightness from the forebrain, higher signal from the hindbrain, and highest signal from regions in the head outside the brain

## O=c1c(Cc2ccco2)nc2c(Cc3ccccc3)[nH]c(-c3cccc(O)c3)cn1-2 [HFz, hydrofurimazine, reference compound]
[4]; [8]
  brain signal brightness relative to Fz: more than tenfold dimmer
  brain signal distribution: signal from the brain similar to Fz

## Cc1ccc(Cc2nc3c(Cc4ccccc4)[nH]c(-c4cccc(F)c4F)cn-3c2=O)o1 [compound 10]
[5]
  relative solubility in aqueous formulation with P-407: reduced solubility
[5]; 4.2 µmol
  solubilization of 4.2 µmol in P-407 formulation: incomplete solubilization

## Cc1ccc(Cc2nc3c(Cc4ccccc4F)[nH]c(-c4cccc(F)c4F)cn-3c2=O)o1 [compound 13]
[6]; 4.2 µmol with 20 mg P-407, one injection
  toxicity after a single i.p. injection: severe kidney pathology and weight loss; also recorded: more toxic than 6
[6]; [9]
  BMH, brain multifocal hemorrhage score: 0
  HMNH, heart myocardial necrosis and hemorrhage score: 0
  HN, hepatocellular necrosis score: 0
  LC, Liver capsule score: 0
  RTD, renal tubular dilation score: 2 (5%–25% of tubules affected) (2×) and 3 (25%–50% of tubules affected)
  RTDR, renal tubular degeneration and regeneration score: 3 (25%–50% of tubules affected) (2×) and 2 (5%–25% of tubules affected)
  SRPHMV, splenic red pulp histiocytosis with microvesicular vacuolation score: 0
  Total organ score: 5 and 4 and 6
  ∆ weight: –7.9%; also recorded: –7.2%; also recorded: –6.7%
[7]
  HPMC, heart perivascular myxomatous change score: 0
  HT, heart telangiectasia score: 0
  KCHMV, Kupffer cell hyperplasia and microvesicular vacuolation score: 0
[4]; 1.3 µmol i.p. with 10 mg P-407
  brain brightness relative to 6: brighter
[4]; 1.3 µmol i.p. with 10 mg P-407, Vglut2-IRES-cre or CaMKIIα-cre
  brain brightness relative to 6 (factor): 1.5–2.0
